Experimental data from patent US10815274B2, “Immunogenic WT-1 peptides and methods of use thereof” (Memorial Sloan Kettering Cancer Center, priority 2012, dated 2020).
Where a SMILES comes first, the peptide text is derived from it.

How the values were obtained:
WT1- autologous APC = assay: Cr51 release assay, cytotoxic CTL response vs unmodified autologous APC; format: cell-based, human; conditions: 50:1 E:T
[1] = system: WT1+ allo APC with restricting HLA allele loaded with WT1 peptide; assay: Cr51 release assay, cytotoxic CTL response vs peptide loaded allogeneic APC sharing restricting HLA allele (HLA restriction); conditions: 50:1 E:T
WT1- leukemia = assay: Cr51 release assay, cytotoxic CTL response vs WT1- leukemia; format: cell-based, human; conditions: HLA allele A0201; 50:1 E:T
Description: (§1) Twenty-four primary leukemic cells and 1 leukemic cell line were characterized for their expression of WT1 by intracellular FACS staining using murine anti-human WT1 monoclonal antibodies (Neomarkers, Fremont, Calif.) as previously described (32,38) The WT1+ leukemias included blast cells from 11 primary AMLs, 3 primary ALLs and 1B-cell precursor ALL cell line. Ten WT1-leukemias, were used as controls, and included 3 B-cell precursor ALLs and 7 AMLs.

[2] = system: WT1 peptide loaded autologous APC; assay: Cr51 release assay, cytotoxic CTL response vs peptide loaded autologous APC; format: cell-based, human; conditions: 50:1 E:T
WT1+ leukemia = assay: Cr51 release assay, cytotoxic CTL response vs WT1+ leukemia expressing restricting HLA allele; format: cell-based, human; conditions: HLA allele A0201; 50:1 E:T
Description: as §1
PHA blasts were not available from every patient that provided leukemia blasts for this study.

[3] = system: WT1- allo APC with restricting HLA allele; assay: Cr51 release assay, cytotoxic CTL response vs unloaded allogeneic APC sharing restricting HLA allele; format: cell-based, human; conditions: 50:1 E:T

SMILES: CC[C@H](C)[C@H](NC(=O)[C@H](C)N)C(=O)N[C@@H](CC(C)C)C(=O)N[C@@H](CC(=O)O)C(=O)N[C@@H](Cc1ccccc1)C(=O)N[C@@H](CC(C)C)C(=O)N[C@@H](CC(C)C)C(=O)N[C@@H](CC(C)C)C(=O)N[C@@H](CCC(N)=O)C(=O)O [SEQ ID NO: 147] (H-AILDFLLLQ-OH; N-terminus and C-terminus assumed)
- Cytotoxic CTL response, % vs WT1- autologous APC (WT1- autologous APC; HLA allele A0201): 0%
- Cytotoxic CTL response, % vs WT1+ allo APC with restricting HLA allele loaded with WT1 peptide ([1]; HLA allele A0201): 17%
- Cytotoxic CTL response, % vs WT1- leukemia (WT1- leukemia): 3%
- Cytotoxic CTL response, % vs WT1 peptide loaded autologous APC ([2]; HLA allele A0201): 18%
- Cytotoxic CTL response, % vs WT1+ leukemia (WT1+ leukemia): 19%
- Cytotoxic CTL response, % vs WT1- allo APC with restricting HLA allele ([3]; HLA allele A0201): 3%

SMILES: CC(C)C[C@H](NC(=O)[C@H](Cc1c[nH]cn1)NC(=O)[C@H](CC(=O)O)NC(=O)[C@H](CO)NC(=O)[C@H](CCCNC(=N)N)NC(=O)[C@H](CO)NC(=O)[C@H](Cc1ccccc1)NC(=O)[C@H](CCCCN)NC(=O)[C@@H](N)CCCNC(=N)N)C(=O)O [SEQ ID NO: 181] (H-RKFSRSDHL-OH; N-terminus and C-terminus assumed)
- Cytotoxic CTL response, % vs WT1- autologous APC (WT1- autologous APC; HLA allele A0201): 3%
- Cytotoxic CTL response, % vs WT1+ allo APC with restricting HLA allele loaded with WT1 peptide ([1]; HLA allele A0201): 27%
- Cytotoxic CTL response, % vs WT1 peptide loaded autologous APC ([2]; HLA allele A0201): 40%
- Cytotoxic CTL response, % vs WT1- allo APC with restricting HLA allele ([3]; HLA allele A0201): 1%

SMILES: CC(C)C[C@H](NC(=O)[C@H](CS)NC(=O)CNC(=O)[C@@H]1CCCN1)C(=O)N[C@@H](CCC(N)=O)C(=O)N[C@@H](CCC(N)=O)C(=O)N1CCC[C@H]1C(=O)N[C@@H](CCC(=O)O)C(=O)N[C@@H](CCC(N)=O)C(=O)N[C@@H](CCC(N)=O)C(=O)NCC(=O)O [SEQ ID NO: 149] (H-PGCLQQPEQQG-OH; N-terminus and C-terminus assumed)
- Cytotoxic CTL response, % vs WT1- autologous APC (WT1- autologous APC; HLA allele DRB10101): 6%
- Cytotoxic CTL response, % vs WT1+ allo APC with restricting HLA allele loaded with WT1 peptide ([1]; HLA allele DRB10101): 25%
- Cytotoxic CTL response, % vs WT1 peptide loaded autologous APC ([2]; HLA allele DRB10101): 54%
- Cytotoxic CTL response, % vs WT1- allo APC with restricting HLA allele ([3]; HLA allele DRB10101): 1%

SMILES: C[C@H](N)C(=O)N[C@@H](CS)C(=O)N[C@@H](CCCNC(=N)N)C(=O)N[C@@H](Cc1ccc(O)cc1)C(=O)NCC(=O)N1CCC[C@H]1C(=O)N[C@@H](Cc1ccccc1)C(=O)NCC(=O)N1CCC[C@H]1C(=O)O [SEQ ID NO: 159] (H-ACRYGPFGP-OH; N-terminus and C-terminus assumed)
- Cytotoxic CTL response, % vs WT1- autologous APC (WT1- autologous APC; HLA allele B4402): 8%
- Cytotoxic CTL response, % vs WT1+ allo APC with restricting HLA allele loaded with WT1 peptide ([1]; HLA allele B4402): 23%
- Cytotoxic CTL response, % vs WT1 peptide loaded autologous APC ([2]; HLA allele B4402): 46%
- Cytotoxic CTL response, % vs WT1- allo APC with restricting HLA allele ([3]; HLA allele B4402): 7%

SMILES: CC(C)C[C@H](NC(=O)[C@@H](NC(=O)[C@@H]1CCCN1C(=O)[C@H](C)NC(=O)[C@H](Cc1c[nH]c2ccccc12)NC(=O)[C@H](CCC(N)=O)NC(=O)[C@H](C)NC(=O)[C@H](C)NC(=O)CN)C(C)C)C(=O)O [SEQ ID NO: 154] (H-GAAQWAPVL-OH; N-terminus and C-terminus assumed)
- Cytotoxic CTL response, % vs WT1- autologous APC (WT1- autologous APC; HLA allele B3901): 2%
- Cytotoxic CTL response, % vs WT1+ allo APC with restricting HLA allele loaded with WT1 peptide ([1]; HLA allele B3901): 19%
- Cytotoxic CTL response, % vs WT1 peptide loaded autologous APC ([2]; HLA allele B3901): 31%
- Cytotoxic CTL response, % vs WT1- allo APC with restricting HLA allele ([3]; HLA allele B3901): 0%

SMILES: CC(C)C[C@H](NC(=O)[C@@H](N)[C@@H](C)O)C(=O)NCC(=O)N[C@H](C(=O)N[C@@H](C)C(=O)N[C@@H](C)C(=O)NCC(=O)N[C@@H](CO)C(=O)O)C(C)C [SEQ ID NO: 177] (H-TLGVAAGS-OH; N-terminus and C-terminus assumed)
- Cytotoxic CTL response, % vs WT1- autologous APC (WT1- autologous APC; HLA allele A6901): 4%
- Cytotoxic CTL response, % vs WT1+ allo APC with restricting HLA allele loaded with WT1 peptide ([1]; HLA allele A6901): 57%
- Cytotoxic CTL response, % vs WT1 peptide loaded autologous APC ([2]; HLA allele A6901): 80%
- Cytotoxic CTL response, % vs WT1- allo APC with restricting HLA allele ([3]; HLA allele A6901): 0%

SMILES: CC(C)C[C@H](NC(=O)[C@H](CS)NC(=O)[C@H](CO)NC(=O)[C@@H]1CCCN1)C(=O)N[C@@H](CCC(=O)O)C(=O)N[C@@H](CO)C(=O)N[C@@H](CCC(N)=O)C(=O)N1CCC[C@H]1C(=O)N[C@@H](C)C(=O)O [SEQ ID NO: 162] (H-PSCLESQPA-OH; N-terminus and C-terminus assumed)
- Cytotoxic CTL response, % vs WT1- autologous APC (WT1- autologous APC; HLA allele B3501): 0%
- Cytotoxic CTL response, % vs WT1+ allo APC with restricting HLA allele loaded with WT1 peptide ([1]; HLA allele B3501): 21%
- Cytotoxic CTL response, % vs WT1 peptide loaded autologous APC ([2]; HLA allele B3501): 35%
- Cytotoxic CTL response, % vs WT1- allo APC with restricting HLA allele ([3]; HLA allele B3501): 0%

SMILES: CC(C)C[C@H](NC(=O)[C@@H](NC(=O)[C@H](C)NC(=O)CNC(=O)[C@@H](N)CC(C)C)[C@@H](C)O)C(=O)N[C@@H](CCCCN)C(=O)NCC(=O)N[C@H](C(=O)N[C@@H](C)C(=O)N[C@@H](C)C(=O)O)C(C)C [SEQ ID NO: 176] (H-LGATLKGVAA-OH; N-terminus and C-terminus assumed)
- Cytotoxic CTL response, % vs WT1- autologous APC (WT1- autologous APC; HLA allele A0203): 0%
- Cytotoxic CTL response, % vs WT1+ allo APC with restricting HLA allele loaded with WT1 peptide ([1]; HLA allele A0203): 21%
- Cytotoxic CTL response, % vs WT1 peptide loaded autologous APC ([2]; HLA allele A0203): 35%
- Cytotoxic CTL response, % vs WT1- allo APC with restricting HLA allele ([3]; HLA allele A0203): 0%

SMILES: CC(C)[C@H](NC(=O)[C@@H](NC(=O)[C@H](CO)NC(=O)[C@H](Cc1ccc(O)cc1)NC(=O)CNC(=O)[C@H](CCC(N)=O)NC(=O)[C@@H](N)CC(N)=O)[C@@H](C)O)C(=O)N[C@H](C(=O)N[C@@H](Cc1ccccc1)C(=O)O)[C@@H](C)O [SEQ ID NO: 163] (H-NQGYSTVTF-OH; N-terminus and C-terminus assumed)
- Cytotoxic CTL response, % vs WT1- autologous APC (WT1- autologous APC; HLA allele A0101): 2%
- Cytotoxic CTL response, % vs WT1+ allo APC with restricting HLA allele loaded with WT1 peptide ([1]; HLA allele A0101): 15%
- Cytotoxic CTL response, % vs WT1 peptide loaded autologous APC ([2]; HLA allele A0101): 19%
- Cytotoxic CTL response, % vs WT1- allo APC with restricting HLA allele ([3]; HLA allele A0101): 4%

SMILES: CC(C)C[C@H](NC(=O)[C@H](CO)NC(=O)[C@@H]1CCCN1C(=O)[C@@H]1CCCN1C(=O)[C@H](Cc1ccccc1)NC(=O)[C@@H](N)Cc1c[nH]cn1)C(=O)N1CCC[C@H]1C(=O)N1CCC[C@H]1C(=O)N[C@H](C(=O)O)[C@@H](C)O [SEQ ID NO: 145] (H-HFPPSLPPT-OH; N-terminus and C-terminus assumed)
- Cytotoxic CTL response, % vs WT1- autologous APC (WT1- autologous APC; HLA allele A3101): 0%
- Cytotoxic CTL response, % vs WT1+ allo APC with restricting HLA allele loaded with WT1 peptide ([1]; HLA allele A3101): 27%
- Cytotoxic CTL response, % vs WT1 peptide loaded autologous APC ([2]; HLA allele A3101): 42%
- Cytotoxic CTL response, % vs WT1- allo APC with restricting HLA allele ([3]; HLA allele A3101): 0%

SMILES: CSCC[C@H](NC(=O)[C@H](CCCNC(=N)N)NC(=O)[C@H](C)NC(=O)[C@H](CCC(N)=O)NC(=O)CNC(=O)[C@@H](N)CO)C(=O)N[C@@H](Cc1ccccc1)C(=O)N1CCC[C@H]1C(=O)N[C@@H](CC(N)=O)C(=O)O [SEQ ID NO: 160] (H-SGQARMFPN-OH; N-terminus and C-terminus assumed)
- Cytotoxic CTL response, % vs WT1- autologous APC (WT1- autologous APC; HLA allele B3503): 0%
- Cytotoxic CTL response, % vs WT1- autologous APC (WT1- autologous APC; HLA allele C0401): 0%
- Cytotoxic CTL response, % vs WT1+ allo APC with restricting HLA allele loaded with WT1 peptide ([1]; HLA allele B3503): 41%
- Cytotoxic CTL response, % vs WT1+ allo APC with restricting HLA allele loaded with WT1 peptide ([1]; HLA allele C0401): 41%
- Cytotoxic CTL response, % vs WT1 peptide loaded autologous APC ([2]; HLA allele B3503): 84%
- Cytotoxic CTL response, % vs WT1 peptide loaded autologous APC ([2]; HLA allele C0401): 84%
- Cytotoxic CTL response, % vs WT1- allo APC with restricting HLA allele ([3]; HLA allele B3503): 3%
- Cytotoxic CTL response, % vs WT1- allo APC with restricting HLA allele ([3]; HLA allele C0401): 3%

SMILES: C[C@H](NC(=O)[C@H](C)NC(=O)[C@H](Cc1c[nH]cn1)NC(=O)[C@@H](N)Cc1c[nH]cn1)C(=O)N[C@@H](CCC(N)=O)C(=O)N[C@@H](Cc1ccccc1)C(=O)N1CCC[C@H]1C(=O)N[C@@H](CC(N)=O)C(=O)N[C@@H](Cc1c[nH]cn1)C(=O)O [SEQ ID NO: 164] (H-HHAAQFPNH-OH; N-terminus and C-terminus assumed)
- Cytotoxic CTL response, % vs WT1- autologous APC (WT1- autologous APC; HLA allele B3801): 0%
- Cytotoxic CTL response, % vs WT1+ allo APC with restricting HLA allele loaded with WT1 peptide ([1]; HLA allele B3801): 17%
- Cytotoxic CTL response, % vs WT1 peptide loaded autologous APC ([2]; HLA allele B3801): 26%
- Cytotoxic CTL response, % vs WT1- allo APC with restricting HLA allele ([3]; HLA allele B3801): 1%

SMILES: C[C@@H](O)[C@H](NC(=O)[C@H](CS)NC(=O)[C@H](CO)NC(=O)[C@H](CC(=O)O)NC(=O)[C@@H](NC(=O)[C@@H]1CCCN1C(=O)[C@@H](NC(=O)[C@H](Cc1c[nH]cn1)NC(=O)[C@@H](N)CS)[C@@H](C)O)[C@@H](C)O)C(=O)O [SEQ ID NO: 166] (H-CHTPTDSCT-OH)
- Cytotoxic CTL response, % vs WT1- autologous APC (WT1- autologous APC; HLA allele B4402): 8%
- Cytotoxic CTL response, % vs WT1+ allo APC with restricting HLA allele loaded with WT1 peptide ([1]; HLA allele B4402): 19%
- Cytotoxic CTL response, % vs WT1 peptide loaded autologous APC ([2]; HLA allele B4402): 37%
- Cytotoxic CTL response, % vs WT1- allo APC with restricting HLA allele ([3]; HLA allele B4402): 7%
